# Laboratory results taken from patent US20240252488A1 (KOREA RESEARCH INSTITUTE OF CHEMICAL TECHNOLOGY, priority 2020, published 2024).
# Key:
# MLKL [1] = molecular target: T1, MLKL (Homo sapiens, UniProt Q8NB16); assay: MLKL degradation assay in HepG2 cell line (western blot); format: cell-based; set-up: endogenous in cells; host or cells: HepG2 or HaCaT; settings: cell line not given; for Degradation assay (Degradation %) 1 μM: compound 1 μM; for Degradation assay (Degradation %) 10 μM: compound 10 μM
# T1 sequence (Q8NB16 1-471): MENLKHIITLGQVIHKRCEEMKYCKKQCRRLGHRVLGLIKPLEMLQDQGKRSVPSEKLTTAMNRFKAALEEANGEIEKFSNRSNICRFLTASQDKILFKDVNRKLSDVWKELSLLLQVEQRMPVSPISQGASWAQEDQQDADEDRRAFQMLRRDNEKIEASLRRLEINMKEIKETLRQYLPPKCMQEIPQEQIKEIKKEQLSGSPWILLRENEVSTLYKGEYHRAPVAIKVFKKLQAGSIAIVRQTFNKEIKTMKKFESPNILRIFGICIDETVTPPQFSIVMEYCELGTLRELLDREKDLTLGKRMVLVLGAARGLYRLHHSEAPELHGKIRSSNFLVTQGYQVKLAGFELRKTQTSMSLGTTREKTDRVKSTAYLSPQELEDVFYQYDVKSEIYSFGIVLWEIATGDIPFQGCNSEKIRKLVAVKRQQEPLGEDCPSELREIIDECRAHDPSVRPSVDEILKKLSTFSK
# Summary of the method: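 After treating HepG2 with test compounds (final 1 μM or 10 μM) for 20-24 h, we lysed cells, equalized protein by BCA and probed MLKL by overnight primary antibody at 4 °C followed by chemiluminescent detection.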
# MLKL [2] = molecular target: T1, MLKL; assay: Measurement of binding affinity with MLKL receptor (competitive binding assay, Kd); set-up: made in house; host or cells: HEK 293 cell line (T7 phage in E. coli BL21-derived host is also described)
# Summary of the method: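 Kd comes from a bead-based competition format: compound-dependent loss of DNA-tagged, HEK 293-expressed MLKL capture, measured as eluate kinase by qPCR. Final DMSO is 0.9%.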
# FADD−/− Jurkat cells = assay: Necroptosis inhibition assay, TNF-α-induced necroptosis (CellTiter-Glo 2.0); format: cell-based, human; settings: TNF-α 15 ng/mL; for Necroptosis inhibition assay (Rescue %) 1 μM: compound 1 μM; for Necroptosis inhibition assay (Rescue %) 10 μM: compound 10 μM
# Summary of the method: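 Necroptosis was triggered by TNF-α at 15 ng/mL final following 30 minutes of compound exposure (0.1, 1 or 10 μM final). Incubation ran 20 to 24 hours at 37° C under 5% CO2; cell ATP was then quantified by luminescence.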
structure (smiles),measurement,setting,value
"Nc1ncc(-c2cnn(C3CCN(CCOCCOCCOCCNC(=O)C4CN(c5ccc6c(c5)C(=O)N(C5CCC(=O)NC5=O)C6=O)C4)CC3)c2)nc1C(=O)O[C@@H](C(=O)Nc1ccc(F)cc1)c1ccccc1 (stereo partly drawn) [TDH-142, (R)-2-((4-fluorophenyl)amino)-2-oxo-1-phenylethyl 3-amino-6-(1-(1-(1-(1-(2-(2,6-dioxopiperidin-3-yl)-1,3-dioxoisoindolin-5-yl)azetidin-3-yl)-1-oxo-5,8,11-trioxa-2-azatridecan-13-yl)piperidin-4-yl)-1H-pyrazol-4-yl)pyrazine-2-carboxylate]",Degradation assay (Degradation %) 1 μM,MLKL [1],19.42%
same,Degradation assay (Degradation %) 10 μM,MLKL [1],53.09%
same,Kd,MLKL [2],4.4 nM
same,Necroptosis inhibition assay (Rescue %) 1 μM,FADD−/− Jurkat cells,12.69%
same,Necroptosis inhibition assay (Rescue %) 10 μM,FADD−/− Jurkat cells,50.51%
"Nc1ncc(-c2cnn(C3CCN(C4CC5(CCN(CC6CCN(C(=O)Cc7cccc(NC8=CC(=O)N(C9CCC(=O)NC9=O)C8=O)c7)CC6)CC5)C4)CC3)c2)nc1C(=O)O[C@@H](C(=O)Nc1ccc(F)cc1)c1ccccc1 (stereo partly drawn) [TDH-500, (R)-2-((4-fluorophenyl)amino)-2-oxo-1-phenylethyl 3-amino-6-(1-(1-(7-((1-(2-(3-((1-(2,6-dioxopiperidin-3-yl)-2,5-dioxo-2,5-dihydro-1H-pyrrol-3-yl)amino)phenyl)acetyl)piperidin-4-yl)methyl)-7-azaspiro[3.5]nonan-2-yl)piperidin-4-yl)-1H-pyrazol-4-yl)pyrazine-2-carboxylate]",Degradation assay (Degradation %) 1 μM,MLKL [1],80.41%
same,Degradation assay (Degradation %) 10 μM,MLKL [1],83.21%
same,Kd,MLKL [2],0.64 nM
same,Necroptosis inhibition assay (Rescue %) 1 μM,FADD−/− Jurkat cells; FADD−/− Jurkat cells,25.16%
same,Necroptosis inhibition assay (Rescue %) 10 μM,FADD−/− Jurkat cells; FADD−/− Jurkat cells,0.16%
"Nc1ncc(-c2cnn(C3CCN(C(=O)CCC4CCN(C(=O)COc5ccc6nnn(C7CCC(=O)NC7=O)c(=O)c6c5)CC4)CC3)c2)nc1C(=O)O[C@@H](C(=O)Nc1ccc(F)cc1)c1ccccc1 (stereo partly drawn) [TDH-437, (R)-2-((4-fluorophenyl)amino)-2-oxo-1-phenylethyl 3-amino-6-(1-(1-(3-(1-(2-((3-(2,6-dioxopiperidin-3-yl)-4-oxo-3,4-dihydrobenzo[d][1,2,3]triazin-6-yl)oxy)acetyl)piperidin-4-yl)propanoyl)piperidin-4-yl)-1H-pyrazol-4-yl)pyrazine-2-carboxylate]",Degradation assay (Degradation %) 1 μM,MLKL [1],87.34%
same,Degradation assay (Degradation %) 10 μM,MLKL [1],79.50%
same,Kd,MLKL [2],1.3 nM
same,Necroptosis inhibition assay (Rescue %) 1 μM,FADD−/− Jurkat cells; FADD−/− Jurkat cells,42.82%
same,Necroptosis inhibition assay (Rescue %) 10 μM,FADD−/− Jurkat cells; FADD−/− Jurkat cells,23.20%
"Nc1ncc(-c2cnn(C3CCN(CC4CCN(CC(=O)N5CCN(c6cccc7c6C(=O)N(C6CCC(=O)NC6=O)C7=O)CC5)CC4)CC3)c2)nc1C(=O)OC(C(=O)Nc1ccc(F)cc1)c1ccccc1 (centres unmarked) [TDH-237, 2-((4-fluorophenyl)amino)-2-oxo-1-phenylethyl 3-amino-6-(1-(1-((1-(2-(4-(2-(2,6-dioxopiperidin-3-yl)-1,3-dioxoisoindolin-4-yl)piperazin-1-yl)-2-oxoethyl)piperidin-4-yl)methyl)piperidin-4-yl)-1H-pyrazol-4-yl)pyrazine-2-carboxylate]",Degradation assay (Degradation %) 1 μM,MLKL [1],56.98%
same,Degradation assay (Degradation %) 10 μM,MLKL [1],65.18%
same,Kd,MLKL [2],1.8 nM
same,Necroptosis inhibition assay (Rescue %) 1 μM,FADD−/− Jurkat cells,67.77%
same,Necroptosis inhibition assay (Rescue %) 10 μM,FADD−/− Jurkat cells,34.51%
"Nc1ncc(-c2cnn(C3CN(CC4CCN(C(=O)COc5cccc6c5C(=O)N(C5CCC(=O)NC5=O)C6=O)CC4)C3)c2)nc1C(=O)OC(C(=O)Nc1ccc(F)cc1)c1ccccc1 (centres unmarked) [TDH-298, 2-((4-fluorophenyl)amino)-2-oxo-1-phenylethyl 3-amino-6-(1-(1-((1-(2-((2-(2,6-dioxopiperidin-3-yl)-1,3-dioxoisoindolin-4-yl)oxy)acetyl)piperidin-4-yl)methyl)azetidin-3-yl)-1H-pyrazol-4-yl)pyrazine-2-carboxylate]",Degradation assay (Degradation %) 1 μM,MLKL [1],45.8%
same,Degradation assay (Degradation %) 10 μM,MLKL [1],78.83%
same,Kd,MLKL [2],9.8 nM
same,Necroptosis inhibition assay (Rescue %) 1 μM,FADD−/− Jurkat cells,41.64%
same,Necroptosis inhibition assay (Rescue %) 10 μM,FADD−/− Jurkat cells,66.6%
"Nc1ncc(-c2cnn(C3CCN(CCCN4CCN(c5cccc6c5C(=O)N(C5CCC(=O)NC5=O)C6=O)CC4)CC3)c2)nc1C(=O)OC(C(=O)Nc1ccc(F)cc1)c1ccccc1 (centres unmarked) [TDH-245, 2-((4-fluorophenyl)amino)-2-oxo-1-phenylethyl 3-amino-6-(1-(1-(3-(4-(2-(2,6-dioxopiperidin-3-yl)-1,3-dioxoisoindolin-4-yl)piperazin-1-yl)propyl)piperidin-4-yl)-1H-pyrazol-4-yl)pyrazine-2-carboxylate]",Degradation assay (Degradation %) 1 μM,MLKL [1],67.67%
same,Degradation assay (Degradation %) 10 μM,MLKL [1],62.75%
same,Kd,MLKL [2],3.6 nM
same,Necroptosis inhibition assay (Rescue %) 1 μM,FADD−/− Jurkat cells,65.75%
same,Necroptosis inhibition assay (Rescue %) 10 μM,FADD−/− Jurkat cells,14.51%
"Nc1ncc(-c2cnn(C3CCN(CC4CCN(C(=O)COc5ccc6c(c5)C(=O)N(C5CCC(=O)NC5=O)C6=O)CC4)CC3)c2)nc1C(=O)N[C@@H](C(=O)Nc1ccc(F)cc1)c1ccccc1 (stereo partly drawn) [TDH-187, 3-amino-6-(1-(1-((1-(2-((2-(2,6-dioxopiperidin-3-yl)-1,3-dioxoisoindolin-5-yl)oxy)acetyl)piperidin-4-yl)methyl)piperidin-4-yl)-1H-pyrazol-4-yl)-N-((R)-2-((4-fluorophenyl)amino)-2-oxo-1-phenylethyl)pyrazine-2-carboxamide]",Degradation assay (Degradation %) 1 μM,MLKL [1],27.67%
same,Kd,MLKL [2],150 nM
same,Necroptosis inhibition assay (Rescue %) 1 μM,FADD−/− Jurkat cells,28.68%
same,Necroptosis inhibition assay (Rescue %) 10 μM,FADD−/− Jurkat cells,29.31%
"Nc1ncc(-c2cnn(C3CCN(CC4CCN(c5cc6c(cc5F)C(=O)N(C5CCC(=O)NC5=O)C6=O)CC4)CC3)c2)nc1C(=O)O[C@@H](C(=O)Nc1ccc(F)cc1)c1ccccc1 (stereo partly drawn) [TDH-519, (R)-2-((4-fluorophenyl)amino)-2-oxo-1-phenylethyl 3-amino-6-(1-(1-((1-(2-(2,6-dioxopiperidin-3-yl)-6-fluoro-1,3-dioxoisoindolin-5-yl)piperidin-4-yl)methyl)piperidin-4-yl)-1H-pyrazol-4-yl)pyrazine-2-carboxylate]",Degradation assay (Degradation %) 1 μM,MLKL [1],89.40%
same,Degradation assay (Degradation %) 10 μM,MLKL [1],86.43%
same,Kd,MLKL [2],7.1 nM
same,Necroptosis inhibition assay (Rescue %) 1 μM,FADD−/− Jurkat cells; FADD−/− Jurkat cells,4.80%
same,Necroptosis inhibition assay (Rescue %) 10 μM,FADD−/− Jurkat cells; FADD−/− Jurkat cells,17.07%
"Nc1ncc(-c2cnn(C3CCN(CCOC4CCN(C(=O)CCc5cccc6c5CN(C5CCC(=O)NC5=O)C6=O)CC4)CC3)c2)nc1C(=O)O[C@@H](C(=O)Nc1ccc(F)cc1)c1ccccc1 (stereo partly drawn) [TDH-387, (R)-2-((4-fluorophenyl)amino)-2-oxo-1-phenylethyl 3-amino-6-(1-(1-(2-((1-(3-(2-(2,6-dioxopiperidin-3-yl)-1-oxoisoindolin-4-yl)propanoyl)piperidin-4-yl)oxy)ethyl)piperidin-4-yl)-1H-pyrazol-4-yl)pyrazine-2-carboxylate]",Degradation assay (Degradation %) 1 μM,MLKL [1],85.77%
same,Degradation assay (Degradation %) 10 μM,MLKL [1],66.9%
same,Kd,MLKL [2],1.6 nM
same,Necroptosis inhibition assay (Rescue %) 1 μM,FADD−/− Jurkat cells,37.82%
same,Necroptosis inhibition assay (Rescue %) 10 μM,FADD−/− Jurkat cells,25.00%
